Reference: patent US11352371B2, “Thienopyrimidine derivatives as ACC inhibitors and uses thereof” (Gilead Sciences, Inc., priority 2019, dated 2022)

Tests used:
[1] = test system: monkey hepatocytes; test: In vitro hepatic uptake in monkey hepatocytes; type: in vitro ADME; conditions: data not shown
Description: (§1) To further investigate the liver partitioning properties of the compound of Example 1, the compound was co-administered with rifampicin (RIF, pan-OATP inhibitor) in cynomolgus monkeys in vivo and hepatic uptake experiments were performed in monkey hepatocytes in vitro. […] Therefore the coadministration experiments as described below in more detail were conducted to administer Example 1 compound orally (5 mg/kg) in the absence and presence of IV administration of RIF (30 mg/kg).

[2] = Rat liver/plasma ratio determination; type: in vivo, male Sprague-Dawley (SD) rats; conditions: male SD rats, single oral dose 5 mg/kg or 10 mg/kg
Description: Liver to plasma (L/P) ratios of certain example compounds were determined in male Sprague-Dawley (SD) rats 2 hours and 24 hours after their administration.
The in vivo phases of the rat L/P ratio determinations for example compounds were conducted at Covance Laboratories (Madison, Wis.) or Charles River Laboratories (Worcester, Wash.). Animals were housed and handled in accordance with the Guide for the Care and Use of Laboratory Animals, Institute of Laboratory Animal Resources. The protocols were reviewed and approved by Institutional Animal Care and Use Committees (IACUC). Male Sprague-Dawley (SD) rats weighing approximately 300 g were fasted overnight prior to dosing and up to 4 hours after dosing. Each example compound was dosed at a single dose at 5 mg/kg or 10 mg/kg orally by gavage to male SD rats (n=3 rats/group). The aqueous formulation contained ethyl alcohol and polyethylene glycol 300. Approximately 100 μL plasma and 0.5 g liver samples were collected from each animal either 2 hours or 24 hours after dosing. The liver samples were homogenized by hard tissue homogenizer probes (Omni International, Kennesaw, Ga.) with 4× extraction buffer. For LC-MS/MS analysis, plasma and liver samples were prepared through protein precipitation extraction and analyzed on a Scitex API 5500 or 6500 LC-MS/MS instrument (Applied Biosystems, Foster City, Calif.). Analyte was eluted on a 1.7 μm 50×2.1 mm Acquity UPLC BEH C18 column (Waters, Milford, Mass.) using mobile phase containing 0.1% formic acid and a linear gradient from 55% to 95% acetonitrile at a flow rate of 800 μL/min. A liver/plasma ratio for each compound was calculated using the liver and plasma concentrations at the corresponding time point (2 hours or 24 hours). Noncompartmental pharmacokinetic parameters were calculated using Phoenix 32 (Pharsight Corporation, Mountain View, Calif.).
To assess the liver loading potential of the compounds, rat liver/plasma ratios (Rat L/P Ratio) values were determined for example compounds and are listed below in Table 1 for 2 hour and 24 hour timepoints (Rat L/P Ratio (2h/24h)).

[3] = Liver partitioning / plasma PK study with and without rifampicin (pan-OATP inhibitor); type: in vivo, cynomolgus monkeys
Description: as §1
(§2) To assess the OATP (organic anion transporting polypeptides)-mediated liver specific delivery of the Example 1 compound, plasma pharmacokinetics (PK) was evaluated in cynomolgus monkeys. The in-life phase of the cyno PK studies was conducted at Covance Laboratories (Madison, Wis.). Animals were housed and handled in accordance with the Guide for the Care and Use of Laboratory Animals, Institute of Laboratory Animal Resources. The protocols were reviewed and approved by the Institutional Animal Care and Use Committees (IACUC). Male Cynomolgus monkeys weighing approximately 3 kg were used for the in-life portion of the PK studies. The animals were fasted overnight prior to dosing and up to 4 hours after dosing. The animals were administered with the test compound (Example 1) alone or coadministered with 30 mg/kg rifampicin prior to test compound administration at 5 mg/kg via oral gavage (3 monkeys per group). The aqueous formulation contains dimethyl sulfoxide, kolliphor, labrasol and propylene glycol. Approximately 0.5 mL blood samples were collected from each animal and analyzed for test compound (Example 1) concentrations. For LC-MS/MS analysis, plasma samples were prepared through protein precipitation extraction and analyzed on a Sciex API 5500 LC-MS/MS instrument (Applied Biosystems, Foster City, Calif.). Analyte was eluted on a 1.7 μm 50×2.1 mm Acquity UPLC BEH C18 column (Waters, Milford, Mass.) using mobile phases containing 0.1% formic acid and a linear gradient from 60% to 95% acetonitrile at a flow rate of 800 μL/min. Noncompartmental pharmacokinetic parameters were calculated using Phoenix 32 (Pharsight Corporation, Mountain View, Calif.). […]

[4] = test system: OATP; test: as above; type: in vivo, cynomolgus monkeys; conditions: male, cynomolgus monkey, plasma, with rifampicin 30 mg/kg IV (pan-OATP inhibitor), cynomolgus monkeys, 5 mg/kg oral, Pretreatment with Rifampicin 30 mg/kg
Description: as §1, §2

[5] = test system: De Novo Lipogenesis (DNL) in liver; test: In vivo De Novo Lipogenesis study; parameters: species or system Male Sprague Dawley (SD) rats; conditions: Rattus norvegicus; male SD rats, single p.o. dose, acetate i.p. 3h post-dose, livers collected 1h later; read-out: effective dose that decreased in vivo DNL by 50% (ED50)
Description: The DNL inhibitory activity of the compound of Example 1 was assessed in vivo as follows.
The studies were performed at Covance Laboratories (Madison, Wis.) in compliance with Institutional Animal Care and Use Committee protocols. Male Sprague Dawley (SD) rats were purchased from Envigo RMS, INC and were acclimatized for 7 days prior to study initiation. Animals were provided ad libitum access to food and water for the duration of the study. On the day of the experiment, animals were randomized into dose groups (n=6 rats/group) based on body weight and received a single p.o dose of vehicle (0.1% Tween 80 in water, pH 7.5-8.0) or a dose range of the compound of Example 1 (0.1 μg/kg-1 mg/kg). 3h post-dose (Example 1), the animals received a single i.p bolus of […] (Perkin Elmer, 32 μCi/animal) and were sacrificed 1h later, and livers were collected for DNL analysis. An approx. 0.75 g piece of liver was saponified at 70° C. for 120 min in 1.5 mL of 2.5M NaOH followed by addition of 2.5 mL of ethanol, vigorous mixing. […] Residual ether fractions were dissolved in at least 5 mL of Ultima Gold XR scintillation fluid and analyzed by liquid scintillation counting (LSC). The resulting dpm ([…]) values were normalized to tissue weight and the data were expressed as a percent of vehicle. […]

[6] = decrease (↓) with rifampicin pretreatment vs no pretreatment
[7] = increase (↑) with rifampicin pretreatment vs no pretreatment
[8] = male, cynomolgus monkey, plasma, cynomolgus monkeys, 5 mg/kg oral, No-Pre-treatment

**Q.** For COc1ccccc1[C@H](Cn1c(=O)n(C(C)(C)C(=O)NS(=O)(=O)C2(C)CC2)c(=O)c2c(C)c(-c3ncco3)sc21)O[C@@H]1C[C@H]2CC[C@@H](C1)O2 [Example 1, 2-(1-((R)-2-(((1R,3s,5S)-8-oxabicyclo[3.2.1]octan-3-yl)oxy)-2-(2-methoxyphenyl)ethyl)-5-methyl-6-(oxazol-2-yl)-2,4-dioxo-1,4-dihydrothieno[2,3-d]pyrimidin-3(2H)-yl)-2-methyl-N-((1-methylcyclopropyl)sulfonyl)propanamide], which hepatic uptake [1] is on record?
**A.** strong hepatic uptake

**Q.** And the “L/P Ratio (2 h)” value ([2]; liver to plasma concentration 2 hours after dosing)?
**A.** 520

**Q.** And the “L/P Ratio (24 h)” value ([2]; liver to plasma concentration 24 hours after dosing)?
**A.** 1526

**Q.** And the “plasma exposures with RIF treatment relative to monkeys not treated with RIF” value ([3]; 5 mg/kg oral, RIF 30 mg/kg IV)?
**A.** significantly increased

**Q.** What about the “CL/F Fold-Change” value [3, 6] of the same molecule?
**A.** ↓ 299

**Q.** What about the “Vz/F Fold-Change” value [3, 6] of the same molecule?
**A.** ↓ 165

**Q.** What about the “AUC Fold-Change” value [3, 7] of the same molecule?
**A.** ↑ 165

**Q.** And the “Cmax Fold-Change” value [3, 7]?
**A.** ↑ 86

**Q.** What about the AUC [3, 8] of the same molecule?
**A.** 0.294 µM·h

**Q.** And the CL/F [3, 8]?
**A.** 748 mL/min/kg

**Q.** What about the Cmax [3, 8] of the same molecule?
**A.** 0.162 µM

**Q.** And the Vd/F ([3]; male, cynomolgus monkey, plasma, cynomolgus monkeys, 5 mg/kg oral, No-Pre-treatment, read-out: Vz/F)?
**A.** 72.7 L/kg

**Q.** What about the AUC [4] of the same molecule?
**A.** 48.5 µM·h

**Q.** What about the CL/F [4] of the same molecule?
**A.** 2.5 mL/min/kg

**Q.** And the Cmax [4]?
**A.** 14 µM

**Q.** And the Vd/F ([4]; read-out: Vz/F)?
**A.** 0.44 L/kg

**Q.** What about the ED50 [5] of the same molecule?
**A.** 0.08 mg/kg
